Measured values: patent publication US6159696A, “Isolated human BMP-4 promoter region” (priority 1996, dated 2000)
Entries after “also recorded” stand apart in the source; their conditions may differ.

Tests used:
BMP-4 promoter 1 region = assay: ER-mediated luciferase reporter gene modulation, BMP-4 promoter 1 region constructs, transient transfection of U-2 OS cells with pKCRE-ER; type: cell-based, human; conditions: for ER-mediated expression of the reporter gene under control of BMP-4 promoter region (in words): BMP-4 promoter region reporter plus ER expression vector; for Fold Induction: ratio of luciferase activity in presence and absence of compound, U-2 OS, human ER
Excerpt: (§1) Additional fragments of promoter region 1 were generated by progressive exonuclease III digestion (Erase-a-base Kit, Promega), blunt-ended with klenow and deoxynucleotide-triphosphates and subcloned into an endoR SmaI-digested pSLA4 luciferase reporter plasmid.
(§2) The human estrogen receptor (ER)-containing mammalian expression construct pKCRE-ER was constructed in the following way. […] The ER-cDNA was isolated as an endoR SphI/EcoRI fragment comprising nucleotide positions -30 to +1800.
ER-mediated reporter gene modulation by different estrogen analogs of individual promoter region constructs were assayed by transient transfection of osteosarcoma cells (U-2 OS). One day prior to transfection, U-2 OS cells were seeded at a density of 10^5 cells per well (6-well tissue culture plates; Nunc). In this case, the cells were seeded in fenolred-free medium containing 10% (v/v) charcoal-stripped Fetal Calf Serum (csFCS) instead of FCS. DNA was introduced using the lipofection method as described by the supplier (Gibco, BRL). Hereto, the DNA (1 μg receptor construct, 1 μg reporter construct and 250 ng transfection control construct in 250 μL Optimem, Gibco BRL; in different experiments the total amount of transfected DNA was kept constant using pKCRE) was mixed with an equal volume of Lipofectin Reagent (Gibco, BRL) and allowed to stand for 30 min at room temperature. To this was added 500 μL of Optimem (RT) and this mixture was added to the cells, after the latter have been washed with serum-free medium. After a 5 h incubation period at 37° C., the cells were washed with fenolred-free and serum-free medium and incubated overnight in fenolred-free and 10% csFCS medium containing the testcompounds at the concentrations indicated. Prior to the preparation of lysates, cells were washed with PBS (7.6 mM Na2 HPO4 /NAH2 PO4 pH 7.4 and 0.12 M NaCl). Cell extracts were prepared by the addition of 200 μL lysis buffer (0.1 M sodium phosphate buffer pH 7.8 and 0.2% Triton X-100) to the cells and allowed to stand for 5 min at room temperature. Luciferase measurements of cell extracts was performed as described by the supplier (Promega; Luciferase assay system E1501). Hereto, 30 μL of cell extract was added to a […] Optiplate (Packard) and combined with 50 μL of luciferase substrate. The plates were sealed with Topseal film (Packard) and measurements were performed in a Topcount (Packard).

[1] = system: estrogen response element (ERE)-containing promoter; assay: ER-mediated luciferase reporter gene modulation, estrogen response element promoter construct pERE3 TATA-Luc, transient transfection of U-2 OS cells with pKCRE-ER; type: cell-based, human; conditions: for expression of the reporter gene under the control of a promoter comprising an estrogen responsive element (ERE) (in words): ERE promoter reporter plus ER expression vector
Excerpt: The estrogen response element (ERE)-containing promoter construct was based on pBL-CAT6 (Boshart et al., Gene 110, 129, 1992). It was modified into a luciferase (Luc) reporter construct by exchanging the endoR XhoI/StyI fragment of pBL CAT6 (containing the chloramphenicol acetyl transferase coding information) by the endoR XhoI/StyI fragment of pXP2 (containing the luciferase coding information; Nordeen et al., Biotechniques 6, 454, 1988). A minimal promoter/TATA-element with the sequence 5'-GGGTATATAAT-3'(SEQ ID NO:8) was inserted in between the endoR XbaI and endoR BamHI sites resulting in plasmid pTATA-Luc. A triple estrogen response element (ERE) with the core sequence
was inserted in the endoR HindIII site resulting in plasmid pERE3 TATA-Luc.
The human estrogen receptor (ER)-containing mammalian expression construct pKCRE-ER was constructed in the following way. The human ER-cDNA was obtained from G. Greene (Ben May Laboratory for Cancer Research, University of Chicago); it encodes a glycine instead of valine at amino acid position 400 (G. Greene et al., Science 231, 1150, 1986 and Tora et al., EMBO. J, 8, 1981, 1989). The ER-cDNA was isolated as an endoR SphI/EcoRI fragment comprising nucleotide positions -30 to +1800. This fragment was blunted by T4-DNA polymerase and inserted in the blunted endoR BamHI site of the mammalian expression construct pKCR (O'Hara et al., Proc.Natl.Acad.Sci.USA, 78, 1527, 1981). The latter plasmid was modified in that the last exon region of the rabbit β-globin gene was removed by digestion with endoR EcoRI/BgIII, filling in, and religation (nucleotide position 1122-1196; Van Ooyen et al., Science 206, 337, 1979) and the replacement of pBR322 for pBR327 sequences.
(§3) ER-mediated reporter gene modulation by different estrogen analogs of individual promoter region constructs were assayed by transient transfection of osteosarcoma cells (U-2 OS). One day prior to transfection, U-2 OS cells were seeded at a density of 10^5 cells per well (6-well tissue culture plates; Nunc). In this case, the cells were seeded in fenolred-free medium containing 10% (v/v) charcoal-stripped Fetal Calf Serum (csFCS) instead of FCS. DNA was introduced using the lipofection method as described by the supplier (Gibco, BRL). Hereto, the DNA (1 μg receptor construct, 1 μg reporter construct and 250 ng transfection control construct in 250 μL Optimem, Gibco BRL; in different experiments the total amount of transfected DNA was kept constant using pKCRE) was mixed with an equal volume of Lipofectin Reagent (Gibco, BRL) and allowed to stand for 30 min at room temperature. To this was added 500 μL of Optimem (RT) and this mixture was added to the cells, after the latter have been washed with serum-free medium. […]

[2] = system: pSLA4 luciferase reporter plasmid; assay: ER-mediated luciferase reporter gene modulation, pSLA4 reporter without BMP-4 promoter region, transient transfection of U-2 OS cells with pKCRE-ER; type: cell-based, human
Excerpt: as §1, §2
as §3, with “temperature.” for “temperature. To this was added 500 μL of Optimem (RT) and this mixture was added to the cells, after the latter have been washed with serum-free medium.”

BMP-4 promoter 2 region = assay: ER-mediated luciferase reporter gene modulation, BMP-4 promoter 2 region constructs, transient transfection of U-2 OS cells with pKCRE-ER; type: cell-based; conditions: human ER (FIG. 8, FIG. 9)
Excerpt: as §1, §2
as §3, with “temperature.” for “temperature. To this was added 500 μL of Optimem (RT) and this mixture was added to the cells, after the latter have been washed with serum-free medium.”

[3] = promoter region not further specified

In the case of `CC/C(=C(\c1ccc(O)cc1)c1ccc(OCCN(C)C)cc1)c1ccccc1` [4OH-tamoxifen], the “ER-mediated expression of the reporter gene under control of BMP-4 promoter region (in words)” value (“ER-mediated expression” below) (BMP-4 promoter 1 region; [3]) is reported as “can also be achieved”.

For `C[C@]12CC[C@@H]3c4ccc(O)cc4CC[C@H]3[C@@H]1CC[C@@H]2O` [Estradiol, 17β-estradiol], the “Fold Induction” value ([1]; u-2 os cells) was 26 ± 7 fold, the “Fold Induction” value ([2]; u-2 os cells) was 0.7 ± 0.1 fold and the “ER-mediated expression” value (BMP-4 promoter 1 region; promoter region not further specified in the sentence, listed as 17-β-estradiol) was “did not show a significant transcriptional effect”. The “ER-mediated expression” value (BMP-4 promoter 1 region; promoter region not further specified in the sentence, listed as 17β-estradiol) was “did not induce the expression of the reporter gene”.

With `CCCCN(C)C(=O)CCCCCCCCCC[C@@H]1Cc2cc(O)ccc2[C@H]2CC[C@]3(C)[C@@H](O)CC[C@H]3[C@H]12` [ICI 164384] the “ER-mediated expression” value (BMP-4 promoter 1 region; [3]) was “considerable expression of the reporter gene; also recorded: can also be achieved”.

With `O=C(c1ccc(OCCN2CCCCC2)cc1)c1c(-c2ccc(O)cc2)sc2cc(O)ccc12` [Raloxifene, raloxifene] the “ER-mediated effect on BMP-4 promoter 2 region reporter (in words)” value (BMP-4 promoter 2 region) was “also apparent”, the “expression of the reporter gene under the control of a promoter comprising an estrogen responsive element (ERE) (in words)” value [1] was “neither of these compounds were able to induce expression of the reporter gene” and the “Fold Induction” value ([1]; construct pERE3 TATA-Luc, ratio of luciferase activity in presence and absence of compound, U-2 OS, human ER) was 0.7 ± 0.3 fold. For the same molecule, the “Fold Induction” value ([2]; construct pSLA4 (no BMP-4 promoter region), ratio of luciferase activity in presence and absence of compound, U-2 OS, human ER) was 1.1 ± 0.2 fold, the “ER-mediated expression” value (BMP-4 promoter 1 region; [3]) was “could be induced and/or stimulated; also recorded: induced expression of the reporter gene” and the “Fold Induction” value (BMP-4 promoter 1 region; construct pSLA4.IN+16) was 3.8 ± 0.6 fold. The “Fold Induction” value (BMP-4 promoter 1 region; construct pSLA4.IN+33) was 3.1 ± 0.3 fold, the “Fold Induction” value (BMP-4 promoter 1 region; construct pSLA4.IN-42) was 1.1 ± 0.2 fold and the “Fold Induction” value (BMP-4 promoter 1 region; construct pSLA4.INX) was 3.4 ± 0.5 fold. The “Fold Induction” value (BMP-4 promoter 1 region; construct pSLA4.1EX (-1166/+173)) was 3.7 ± 0.7 fold and the “Fold Induction” value (BMP-4 promoter 1 region; construct pSLA4.1PX (-697/+173)) was 3.3 ± 0.5 fold.

In the case of `CC/C(=C(\c1ccccc1)c1ccc(OCCN(C)C)cc1)c1ccccc1` [tamoxifen], the “expression of the reporter gene under the control of a promoter comprising an estrogen responsive element (ERE) (in words)” value [1] is reported as “neither of these compounds were able to induce expression of the reporter gene” and the “ER-mediated expression” value (BMP-4 promoter 1 region; [3]) is reported as “could be induced and/or stimulated; also recorded: induced expression of the reporter gene”.
